US20260021167A1, “COMPOSITIONS AND METHODS FOR TREATING OR PREVENTING NEURODEGENERATIVE DISEASES” (Delaware State University, priority 2022, published 2026)
“Also recorded” adds a separate entry of the source.

Columns and labels:
[1] = test system: phosphorylated Ser-129-α-synuclein; experiment: Immunohistochemistry of phosphorylated Ser-129-α-synuclein in brain sections of PFF-injected mice; type: in vivo, mouse
[2] = test system: TH+ dopaminergic neurons; experiment: Immunohistochemistry of TH staining in striatum and SNc of PFF-injected mice; type: in vivo, mouse
Method: (§1) A mouse model of Parkinson's disease is C57BL/6 male or female mice (50% each) injected with 5 μg of mouse PFF at 12 months old, followed by a treatment below for 6-7 weeks: • 1) without PFF injection, followed by vehicle (control, n=7); • 2) PFF injection, followed by vehicle (PFF only: control, n=8); • 3) PFF injection, followed by daily 10 mg/kg Momordin gavage (n=7-8); • 4) PFF injection, followed by daily 50 mg/kg Momordin gavage (n=7-8).
Immunohistochemistry. The serial coronal sections of the right hemisphere were collected throughout the striatum and substantia nigra. Each section with a thickness of 14 μm was mounted as a set of 5 onto positively charged slides (Midwest Sci, Valley Park, MO). The slides were kept at −80° C. until immunohistochemistry was performed. The sections were thawed at room temperature for 30 min, followed by a rehydration step in 0.1M PB for 10 min. The permeabilization step was performed using pre-chilled 100% acetone for 10 min. The excess acetone was dried, and permeabilization solution (40 µL Triton-X in 2% BSA) was added to the slides and kept aside for an additional 10 min. A blocking reagent containing 5% BSA in PB-T was given in the blocking step after drying the slides of excess permeabilization solution. The primary antibody was exposed under the coverslips to prevent the dehydration of the primary antibody. After the primary antibody (EMD Millipore-AB152) treatment at 4° C. overnight, the tissues were washed in PBS-T for 5 min three times. Then, slides were treated with a secondary antibody of Alexa-647-conjugated goat anti-rabbit (1:1000; Molecular Probes, Thermo Fisher Scientific) and incubated at room temperature for 2 h. The secondary antibody was washed in PBS-T for 3×5 min. Coverslips were mounted on slides using ProLong Diamond antifade mounting medium (Thermofisher, MA, USA). All images were captured using EVOS FL Cell Imaging Systems (Invitrogen), and every fifth section was analyzed for measuring the intensity of TH staining in the striatum and counting TH+ neurons in the SNc in a blinded manner. The same procedure was used for assessing the levels of phosphorylated Ser-129-α-synuclein (1:500, Cell signaling, cat #23706S) and protein aggregation using thioflavin-T (20 μM, Acros). Pictures for specific regions such as the striatum and ventral midbrain (vMB) were taken using confocal microscopy and stitched together to obtain a single image for representation purposes. The intensities were measured using ImageJ by a blinded rater.
Immunohistochemistry. The serial coronal sections of the right hemisphere were collected throughout the striatum and substantia nigra. Each section with a thickness of 14 μm was mounted as a set of 5 onto positively charged slides (Midwest Sci, Valley Park, MO). […]

[3] = test system: N27 cells; experiment: Cytotoxicity (LDH) assay after PFF exposure; type: cell-based, rat; conditions: N27 cells, PFF treatment; compared to PFF only control
Method: Cytotoxicity Assay. The lactate dehydrogenase (LDH) is a cytosolic enzyme that is released into the media during cellular stress and increased levels of cytotoxicity. The cytotoxicity assay was measured using reagents from the Pierce LDH Cytotoxicity Assay Kit (88954, Thermo). For the assay, 50 μL of media from each well after PFF exposure, followed by SENP-1 treatment, was put into wells of a new 96-well plate. The LDH reagents were prepared according to the protocol provided, and 50 μL of the LDH reagent was mixed into each well. The total 100 μL of media containing LDH and its reagent were incubated at 37° C. for 30 min, followed by the application of a stop solution. The mixture was analyzed using a spectrophotometer (SpectraMax M5e, Molecular devices) at 490 nm with a reference wavelength of 680 nm.
In this study, numerous commercially available SENP-1 inhibitors were tested for the recovery effects from preformed fibrils of alpha-synuclein (PFF)-induced PD models in vitro. The screening process includes several SENP-1 inhibitors, including specific SENP-1 inhibitors (e.g., SUMO-2 Aldehyde, Momordin lc, streptonigrin, hinokiflavonem, and siRNAs of SENP-1) and nonspecific SENP-1 inhibitors (e.g., oleanolic acid, gallic acid), in N27 dopaminergic cells after the exposure of PFF for 24 hrs.

[4] = test system: SUMO-1 conjugated α-synuclein; experiment: Western blot of SUMO-1 conjugated α-synuclein in α-synuclein IP tissue samples; type: in vivo, mouse; conditions: PFF-injected mice, vs PFF only
Method: A) In Western blots, Momordin reversed the toxicity from PFF injection in reducing phospho-α-synuclein and SENP-1 on α-synuclein in the MB and STR. […] A pathological marker, phosphorylated α-synuclein was increased by PFF injection, which was reversed by Momordin treatment in the MB (F) and the STR (G).
as §1

[5] = test system: protein aggregates; experiment: Thioflavin-T protein aggregation in brain sections of PFF-injected mice; type: in vivo, mouse
[6] = both 10 and 50 mg/kg oral, PFF-injected mice, vs PFF only

CC1(C)CC[C@]2(C(=O)O)CC[C@]3(C)C(=CC[C@@H]4[C@@]5(C)CC[C@H](O[C@@H]6O[C@H](C(=O)O)[C@@H](O)[C@H](O[C@@H]7OC[C@@H](O)[C@H](O)[C@H]7O)[C@H]6O)C(C)(C)[C@@H]5CC[C@]43C)[C@@H]2C1 [Momordin lc]
accumulation of phosphorylated alpha-synuclein in multiple brain regions ([1]; 10 or 50 mg/kg oral for 6-7 weeks, 15-16 month-old mice, 3-4 months after PFF injection): sufficient to prevent the accumulation; also recorded: effective to prevent the accumulation | level of phospho-α-synuclein in the SNc (IHC) [1, 6]: significantly reduced | level of phospho-α-synuclein in the striatum (IHC) [1, 6]: significantly reduced | recovery from damages in the striatum and Substantia Nigra compacta (SNc) ([2]; 50 mg/kg oral for 6-7 weeks, PFF-injected mice): effective | dopaminergic neuronal death / neuronal cell loss in mouse brains ([2]; PFF injection): reverse dopaminergic neuronal death | number of TH+ dopaminergic neurons in the SNc ([2]; both doses (10 and 50 mg/kg) oral for 6-7 weeks, PFF-injected mice, vs PFF only): significantly recovered | intensity of TH+ label in the striatum ([2]; oral treatment for 6-7 weeks, PFF-injected mice, vs PFF only): improves the intensity of TH+ label | cytotoxicity derived from PFF (LDH assay) [3]: significantly reduced the cytotoxicity | SUMO-1 conjugated α-synuclein in the MB (α-synuclein IP) ([4]; midbrain): increase in SUMO-1 conjugated α-synuclein | SUMO-1 conjugated α-synuclein in the STR (α-synuclein IP) ([4]; striatum): increase in SUMO-1 conjugated α-synuclein | level of alpha-synuclein accumulation/aggregation in Thioflavin-T staining in various brain regions ([5]; PFF injection, mouse brains): reduced the level of alpha-synuclein accumulation/aggregation | level of protein aggregates (Thioflavin-T) in the SNc [5, 6]: significantly reduced | level of protein aggregates (Thioflavin-T) in the striatum [5, 6]: significantly reduced
